# Patent publication US9932340B2, “Substituted indoles” (AbbVie Inc., priority 2014, dated 2018)
# Target: SUV420H1 enzyme (Homo sapiens, UniProt Q4FZB7)
# Experiment: TR-FRET SAH SUV420H1 enzyme inhibition assay
# Type: biochemical
# Conditions: Histone Peptide H4(8-30)me1 and SAM, overnight at room temp, TR-FRET detection of SAH, read-out: TR-FRET SAH_SUV420H1 IC50
# Method: Test compounds were dispensed by a Labcyte Echo in 384-well low volume assay plates with 3-fold serial dilutions from 50 μM to 0.00075 μM. 5 μL of SUV420H1 enzyme (Abbvie) at 90 nM was added to all wells except the no enzyme control wells, and incubated for 30 minutes at room temp before 5 μL of Histone Peptide H4(8-30)me1 (Anaspec) at 5 nM and SAM at 4 nM was added to all wells. The plates were incubated in a humidified chamber overnight at room temp and then 10 μL of the detection reagent that contained RIPA buffer (50 mM Tris-HCl, pH 8.0, 150 mM sodium chloride, 1.0% Igepal CA-630 (NP-40), 0.5% sodium deoxycholate and 0.1% sodium dodecyl sulfate) (Sigma) with 2 nM of Terbium chelate anti S-adenosyl-L-homocysteine (SAH) (Abbvie) antibody and Oregon Green labeled SAH at 4 nM was added. The plates were further incubated for 4 hours at room temperature. The plates were read in a Perkin Elmer Envision using a TR-FRET protocol with Excitation set at 335 nm and Emission at 520 and 495 nm. To generate dose response curves the data is normalized to percent inhibition by setting the average of the plus and minus enzyme control wells to 0% and 100% inhibition respectively. The IC50 values for the compounds are generated by fitting the normalized data with Accelrys Assay Explorer 3.3 to a sigmoidal curve model using […] regression, Y=(100*x^n)/(K^n+x^n), where Y is the measured response, x is the compound concentration, n is the Hill Slope and K is the IC50 and the lower and higher asymptotes are constrained to 0 and 100 respectively.
# Chain of SUV420H1 enzyme (Q4FZB7 whole entry): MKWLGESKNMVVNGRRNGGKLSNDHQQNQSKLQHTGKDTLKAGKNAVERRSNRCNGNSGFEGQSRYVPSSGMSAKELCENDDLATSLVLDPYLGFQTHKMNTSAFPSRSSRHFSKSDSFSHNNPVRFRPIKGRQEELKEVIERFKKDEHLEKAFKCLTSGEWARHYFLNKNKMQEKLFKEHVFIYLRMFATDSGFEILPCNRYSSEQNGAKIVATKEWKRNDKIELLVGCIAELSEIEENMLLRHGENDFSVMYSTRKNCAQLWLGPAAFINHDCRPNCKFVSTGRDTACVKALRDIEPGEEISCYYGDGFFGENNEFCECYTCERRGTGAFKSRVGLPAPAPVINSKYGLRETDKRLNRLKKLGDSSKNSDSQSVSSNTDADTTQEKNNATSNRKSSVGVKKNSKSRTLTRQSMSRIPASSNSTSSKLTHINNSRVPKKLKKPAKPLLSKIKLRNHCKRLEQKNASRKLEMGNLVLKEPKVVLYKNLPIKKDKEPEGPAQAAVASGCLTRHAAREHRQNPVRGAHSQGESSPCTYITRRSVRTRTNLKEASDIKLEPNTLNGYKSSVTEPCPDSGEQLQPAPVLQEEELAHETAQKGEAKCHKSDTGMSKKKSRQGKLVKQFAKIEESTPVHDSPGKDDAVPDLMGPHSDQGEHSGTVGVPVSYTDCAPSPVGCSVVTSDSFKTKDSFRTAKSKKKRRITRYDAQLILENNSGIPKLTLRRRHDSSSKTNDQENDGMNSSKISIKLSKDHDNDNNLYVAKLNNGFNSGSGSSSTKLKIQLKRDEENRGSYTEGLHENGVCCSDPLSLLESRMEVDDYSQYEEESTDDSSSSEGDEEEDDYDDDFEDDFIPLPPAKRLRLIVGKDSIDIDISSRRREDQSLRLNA
row,IC50,SMILES
1,3.23 µM,"CC1CCCC(C(=O)NCc2cc3cc(Cl)cc(Cn4cnc5c(N)ncnc54)c3[nH]2)C1 (stereo not drawn) [Example 131, N-({7-[(6-amino-9H-purin-9-yl)methyl]-5-chloro-1H-indol-2-yl}methyl)-3-methylcyclohexanecarboxamide]"
2,0.541 µM,"CCNC(=O)c1cccc(-c2cc(Cn3cnc4c(N)ncnc43)c3[nH]c(CN)cc3c2)c1 [Example 46, 3-{2-(aminomethyl)-7-[(6-amino-9H-purin-9-yl)methyl]-1H-indol-5-yl}-N-ethylbenzamide]"
3,35 µM,"CN(C)C(=O)CCc1c[nH]c2c(Cn3cnc4c(N)ncnc43)cccc12 [Example 3, 3-{7-[(6-amino-9H-purin-9-yl)methyl]-1H-indol-3-yl}-N,N-dimethylpropanamide]"
4,11.4 µM,"CCN(CC)Cc1cc2cc(Cl)cc(Cn3cnc4c(N)ncnc43)c2[nH]1 [Example 97, 9-({5-chloro-2-[(diethylamino)methyl]-1H-indol-7-yl}methyl)-9H-purin-6-amine]"
5,0.236 µM,"CS(=O)(=O)Nc1ccc(-c2cc(Cn3cnc4c(N)ncnc43)c3[nH]c(CN)cc3c2)cc1 [Example 41, N-(4-{2-(aminomethyl)-7-[(6-amino-9H-purin-9-yl)methyl]-1H-indol-5-yl}phenyl)methanesulfonamide]"
6,1.18 µM,"NCc1cc2c(-c3ccccc3F)ccc(Cn3cnc4c(N)ncnc43)c2[nH]1 [Example 74, 9-{[2-(aminomethyl)-4-(2-fluorophenyl)-1H-indol-7-yl]methyl}-9H-purin-6-amine]"
7,1.85 µM,"COc1ccccc1-c1ccc(Cn2cnc3c(N)ncnc32)c2[nH]c(CN)cc12 [Example 80, 9-{[2-(aminomethyl)-4-(2-methoxyphenyl)-1H-indol-7-yl]methyl}-9H-purin-6-amine]"
8,10.9 µM,"Nc1ncnc2c1ncn2Cc1cc(Cl)cc2cc(CNC(=O)C3CC3)[nH]c12 [Example 107, N-({7-[(6-amino-9H-purin-9-yl)methyl]-5-chloro-1H-indol-2-yl}methyl)cyclopropanecarboxamide]"
9,0.0828 µM,"Cc1noc(C)c1C(=O)NCc1cc2cc(-c3ccc(CC#N)cc3)cc(Cn3cnc4c(N)ncnc43)c2[nH]1 [Example 175, N-({7-[(6-amino-9H-purin-9-yl)methyl]-5-[4-(cyanomethyl)phenyl]-1H-indol-2-yl}methyl)-3,5-dimethyl-1,2-oxazole-4-carboxamide]"
10,0.0844 µM,"COc1c(C(=O)NCc2cc3cc(Cl)cc(Cn4cnc5c(N)ncnc54)c3[nH]2)cnc2c1c(C)nn2C [Example 373, N-({7-[(6-amino-9H-purin-9-yl)methyl]-5-chloro-1H-indol-2-yl}methyl)-4-methoxy-1,3-dimethyl-1H-pyrazolo[3,4-b]pyridine-5-carboxamide]"
11,31.1 µM,"CCC(=O)NCc1cc2cc(Cl)cc(Cn3cnc4c(N)ncnc43)c2[nH]1 [Example 94, N-({7-[(6-amino-9H-purin-9-yl)methyl]-5-chloro-1H-indol-2-yl}methyl)propanamide]"
12,16.8 µM,"Cn1cccc1C(=O)NCc1cc2cc(Cl)cc(Cn3cnc4c(N)ncnc43)c2[nH]1 [Example 160, N-({7-[(6-amino-9H-purin-9-yl)methyl]-5-chloro-1H-indol-2-yl}methyl)-1-methyl-1H-pyrrole-2-carboxamide]"
13,7.31 µM,"CN(C)c1cccc(C(=O)NCc2cc3cc(Cl)cc(Cn4cnc5c(N)ncnc54)c3[nH]2)c1 [Example 309, N-({7-[(6-amino-9H-purin-9-yl)methyl]-5-chloro-1H-indol-2-yl}methyl)-3-(dimethylamino)benzamide]"
14,6.09 µM,"Nc1ncnc2c1ncn2Cc1cc(Cl)cc2cc(CNC(=O)c3cscn3)[nH]c12 [Example 140, N-({7-[(6-amino-9H-purin-9-yl)methyl]-5-chloro-1H-indol-2-yl}methyl)-1,3-thiazole-4-carboxamide]"
15,2.98 µM,"Cc1ccc(N)cc1C(=O)NCc1cc2cc(Cl)cc(Cn3cnc4c(N)ncnc43)c2[nH]1 [Example 271, 5-amino-N-({7-[(6-amino-9H-purin-9-yl)methyl]-5-chloro-1H-indol-2-yl}methyl)-2-methylbenzamide]"
